The source of these data is PubChem BioAssay (NCI).

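Tested at 5 concentrations; 48 h exposure; 96-well plates; endpoints linearly interpolated, else capped at highest concentration. GI50: concentration for 50% inhibition of growth. TGI: concentration producing complete growth inhibition.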

Some test systems named below: COLO 205 colon; HCC-2998 colon; NCI-H226 lung; HOP-92 NSCLC; OVCAR-5 ovarian; RPMI-8226 leukemia; HOP-62 NSCLC; CAKI-1 renal; SK-MEL-5 melanoma; HL-60(TB) leukemia.
Experiment in all cases: NCI anticancer screen, dose series, 48 h

`C[n+]1cn(CC(=O)c2ccccc2)c(C(N)=O)c1N`: the TGI in the experiment with COLO 205 colon, in the experiment on HCC-2998 colon, in the experiment on NCI-H226 lung, in the experiment with HOP-92 NSCLC, in the experiment on OVCAR-5 ovarian and in the experiment on RPMI-8226 leukemia was greater than 100 µM throughout. The TGI in the experiment with HOP-62 NSCLC, with CAKI-1 renal, in the experiment with SK-MEL-5 melanoma and in the experiment with HL-60(TB) leukemia was greater than 100 µM in each case.

For the compound `CCc1ccc(Oc2c(-c3ccc(OCc4ccc(Cl)cc4)cc3O)nn(C)c2C(F)(F)F)cc1`, the GI50 is 0.457 µM in the experiment on COLO 205 colon; 2.44 µM with HCC-2998 colon; 1.18 µM in the experiment with NCI-H226 lung; 0.324 µM in the experiment on HOP-92 NSCLC; 1.75 µM in the experiment with OVCAR-5 ovarian; 0.505 µM in the experiment with RPMI-8226 leukemia. The GI50 in the experiment on HOP-62 NSCLC was 1.34 µM; in the experiment with CAKI-1 renal, 2.09 µM; with SK-MEL-5 melanoma it was 1.22 µM; in the experiment with HL-60(TB) leukemia it was 1.42 µM. The TGI was 1.73 µM with COLO 205 colon; 9.62 µM with HCC-2998 colon; 3.6 µM with NCI-H226 lung; 1.77 µM with HOP-92 NSCLC; 3.85 µM in the experiment on OVCAR-5 ovarian; 3.6 µM with RPMI-8226 leukemia. The TGI is 2.83 µM in the experiment on HOP-62 NSCLC, 7.25 µM with CAKI-1 renal, 2.47 µM in the experiment with SK-MEL-5 melanoma and 3.62 µM in the experiment on HL-60(TB) leukemia.

Regarding `CCCCCCCCCC1CC(=O)OC23CCCC(=O)C12O3` (stereo not given), the TGI with COLO 205 colon, in the experiment on HCC-2998 colon, in the experiment with NCI-H226 lung, in the experiment with HOP-92 NSCLC, in the experiment on OVCAR-5 ovarian and in the experiment on RPMI-8226 leukemia was greater than 100 µM in each case. Moreover, the TGI with HOP-62 NSCLC was greater than 100 µM; in the experiment with CAKI-1 renal, greater than 100 µM; in the experiment with SK-MEL-5 melanoma it was greater than 100 µM; in the experiment on HL-60(TB) leukemia, 69.2 µM.

As to `Cc1nc2sccn2c1C(=O)NNC(N)=S`, the TGI in the experiment with COLO 205 colon, in the experiment on HCC-2998 colon, in the experiment with NCI-H226 lung, in the experiment with HOP-92 NSCLC, in the experiment with OVCAR-5 ovarian and in the experiment on RPMI-8226 leukemia was greater than 100 µM each time. The TGI in the experiment on HOP-62 NSCLC, with CAKI-1 renal, in the experiment with SK-MEL-5 melanoma and in the experiment on HL-60(TB) leukemia was greater than 100 µM throughout.

On to `CC(=O)Nc1cccc(C#Cc2cncnc2Nc2ccc(OCc3cccc(F)c3)c(Cl)c2)c1`, for which the GI50 with COLO 205 colon is 9.17 µM; with HCC-2998 colon, 7.94 µM; in the experiment on NCI-H226 lung, 10 µM; with HOP-92 NSCLC it was 4.05 µM; in the experiment on OVCAR-5 ovarian, 12.7 µM; with RPMI-8226 leukemia, 12.7 µM. Moreover, the GI50 is greater than 19.8 µM in the experiment on HOP-62 NSCLC, 3.3 µM in the experiment on CAKI-1 renal, 8.12 µM with SK-MEL-5 melanoma and 7.59 µM in the experiment on HL-60(TB) leukemia. Further, the TGI in the experiment on COLO 205 colon is greater than 25 µM; in the experiment on HCC-2998 colon it was greater than 25 µM; in the experiment on NCI-H226 lung, greater than 25 µM; with HOP-92 NSCLC, greater than 22.5 µM; with OVCAR-5 ovarian, greater than 25 µM; with RPMI-8226 leukemia it was greater than 25 µM. Also, the TGI in the experiment on HOP-62 NSCLC, in the experiment with CAKI-1 renal, in the experiment with SK-MEL-5 melanoma and in the experiment with HL-60(TB) leukemia was greater than 25 µM each time.

In the case of `O=C(O)c1ccccc1NCn1nc(-c2ccccc2O)oc1=S`, the GI50 was 49.6 µM in the experiment on COLO 205 colon; 33.7 µM with HCC-2998 colon; 86.6 µM with NCI-H226 lung; 30.4 µM in the experiment with HOP-92 NSCLC; greater than 100 µM in the experiment on OVCAR-5 ovarian; 4.14 µM in the experiment on RPMI-8226 leukemia. Besides, the GI50 with HOP-62 NSCLC is 39 µM; in the experiment with CAKI-1 renal, greater than 100 µM; with SK-MEL-5 melanoma, 73.4 µM; in the experiment with HL-60(TB) leukemia, 64.9 µM. Moreover, the TGI with COLO 205 colon is greater than 100 µM; with HCC-2998 colon it was 86.7 µM; in the experiment on NCI-H226 lung, greater than 100 µM; with HOP-92 NSCLC, 94.6 µM; in the experiment on OVCAR-5 ovarian, greater than 100 µM; in the experiment on RPMI-8226 leukemia it was 24.5 µM. For the same compound, the TGI in the experiment on HOP-62 NSCLC, in the experiment with CAKI-1 renal, in the experiment with SK-MEL-5 melanoma and with HL-60(TB) leukemia was greater than 100 µM in each case.

On to `O=C1c2cccc3c(N4CCOCC4)ccc(c23)C(=O)N1CCN1CCN(CCCCCN2CCN(CCN3C(=O)c4cccc5c(N6CCOCC6)ccc(c45)C3=O)CC2)CC1`, for which the GI50 in the experiment with COLO 205 colon is 46.1 µM; in the experiment with HCC-2998 colon, 17.5 µM; with NCI-H226 lung it was 87.3 µM; with HOP-92 NSCLC, 76.6 µM; with OVCAR-5 ovarian, greater than 100 µM; in the experiment on RPMI-8226 leukemia, 23.2 µM. The GI50 in the experiment on HOP-62 NSCLC is 52.3 µM; in the experiment with CAKI-1 renal, greater than 100 µM; in the experiment with SK-MEL-5 melanoma, 57.2 µM; in the experiment on HL-60(TB) leukemia, 33.7 µM. Moreover, the TGI in the experiment on COLO 205 colon is greater than 100 µM; in the experiment with HCC-2998 colon it was 65.5 µM; in the experiment with NCI-H226 lung it was greater than 100 µM; in the experiment on HOP-92 NSCLC, greater than 100 µM; in the experiment with OVCAR-5 ovarian, greater than 100 µM; in the experiment with RPMI-8226 leukemia, greater than 100 µM. Moreover, the TGI in the experiment on HOP-62 NSCLC, with CAKI-1 renal, in the experiment with SK-MEL-5 melanoma and in the experiment on HL-60(TB) leukemia was greater than 100 µM in each case.

Regarding `COc1ccc(-c2cnc(-c3ccncc3-c3cccc(OC)c3)o2)cc1`, the GI50 with COLO 205 colon was 0.0375 µM; in the experiment on HCC-2998 colon it was 0.0799 µM; in the experiment with NCI-H226 lung it was 0.153 µM; with HOP-92 NSCLC it was 0.403 µM; in the experiment on OVCAR-5 ovarian, 0.0809 µM; in the experiment with RPMI-8226 leukemia it was 0.0387 µM. In addition, the GI50 with HOP-62 NSCLC is 0.0531 µM; in the experiment with CAKI-1 renal it was 0.866 µM; in the experiment on SK-MEL-5 melanoma, 0.0379 µM; with HL-60(TB) leukemia, 0.024 µM. The TGI was found to be 1.23 µM in the experiment on COLO 205 colon; 14.3 µM with HCC-2998 colon; 15.6 µM in the experiment with NCI-H226 lung; 20.2 µM in the experiment on HOP-92 NSCLC; 23.5 µM in the experiment on OVCAR-5 ovarian; 5.75 µM in the experiment with RPMI-8226 leukemia. Also, the TGI in the experiment on HOP-62 NSCLC came to 23.8 µM; with CAKI-1 renal it was 33 µM; in the experiment on SK-MEL-5 melanoma, 0.226 µM; with HL-60(TB) leukemia, 0.0968 µM.
